According to patent US8685538B2, “Stable polyelectrolyte coated nanoparticles” (Northeastern University, priority 2009, dated 2014):

Assay: Zeta potential (surface potential) measurement after each polyelectrolyte coating
Format: physicochemical
Procedure: 5 mg paclitaxel or atavoquone was dissolved in 5 mL of a 60% ethanol/water or a 60% acetone/water solution in a glass tube. This solution was ultrasonicated at 100% amplitude for 2 min, and then 1 mL of a 5 mg/mL polylysine, polyethylenimine, or protomine sulphate solution was added. This was then ultrasonicated for 1 min while adding water at certain speeds and volumes (e.g., 1 mL/min until 5 mL to 10 mL was reached). This was then ultrasonicated for another 30 min. After sonication, the zeta potential of the sample was measured to assure recharging of the formed paclitaxel nanocrystals to positive. Layer-by-layer (LbL) coating with 2 layers of BSA/PS (bovine serum albumin/protamine sulfate) was performed (as described in, e.g., WO2009/012303), followed by SEM readings and measurement of zeta potential.
After each coating, a sample was taken and surface potential was measured using a Zeta potential analyzer.
PAH and PSS were alternately added to the curcumin nanoparticles using the LbL procedure. […] PAH adsorption during nanoparticles synthesis converted the potential to +30±2 mV. Next, anionic PSS adsorption changed the potential to −53±2 mV, followed by +19±2 mV with the addition of PAH, and again to −50±2 mV with the addition of PSS. Therefore, multiple layers of polycations and polyanions, i.e., (PAH/PSS)2, were coated onto the curcumin nanoparticles.

| zeta potential (bare, initial potential, FIG. 7) [mV] | zeta potential (initial paclitaxel compound, no coating, FIG. 4) | SMILES |
| --- | --- | --- |
| −50±2 | – | COc1cc(/C=C/C(=O)CC(=O)/C=C/c2ccc(O)c(OC)c2)ccc1O [bare curcumin microparticles, curcumin] |
| – | about −60 mV | CC(=O)O[C@H]1C(=O)[C@@]2(C)[C@H]([C@H](OC(=O)c3ccccc3)[C@]3(O)C[C@H](OC(=O)[C@H](O)[C@@H](NC(=O)c4ccccc4)c4ccccc4)C(C)=C1C3(C)C)[C@]1(OC(C)=O)CO[C@@H]1C[C@@H]2O [paclitaxel] |
